From patent publication US11737459B2, “Use of nootkatone to kill sap-sucking insects” (EVOLVA SA, priority 2016, dated 2023)
“And” between values parts separate entries of the source, which are not always exact repeats. Equal values may be shown once. Read-outs that look alike come from different tables or passages of the source.

How the values were obtained:
[1] = test system: Aphid (Schizaphis gramium); experiment: Laboratory filter-paper bioassay of aphid susceptibility to nootkatone; type: in vivo; conditions: 1% v/v nootkatone in ethanol on filter paper, 24 hours post introduction
Source text: This example describes a laboratory bioassay in which groups of aphids were exposed to a nootkatone-containing composition to determine aphid susceptibility to nootkatone.
(§1) One milliliter of a 1% v/v nootkatone in ethanol was applied directly to 9 cm filter paper discs using a micropipette. The filter papers were allowed to dry completely and cut to the appropriate size prior to the start of the test. Pure ethanol was used as a control.
Treated and untreated filter papers were cut into 2.5 inch (6.35 cm) squares and folded into envelopes to serve as containers for the test. Five replicates of 10 aphids were tested per treatment. After the aphids were placed inside, the openings were sealed using clips so that the aphids could not escape.
Aphids were observed after 24 hours post-introduction to the test containers.
(§2) Readings were discontinued if treated mortality reached 100%, or control mortality exceeded 20%.

[2] = test system: honey bee (Apis mellifera); conditions: for 48-hour Mortality (%), replicates A-C: individual replicates
Description: A negative control group and a solvent control group were maintained concurrently. Three replicate test chambers were maintained in each control and treatment group, with 10 bees in each test chamber. […] The positive control test was conducted concurrently with the definitive test. […] OECD Guidelines for Testing of Chemicals. […] The cumulative mortality observed in the test groups was used to determine the LD50, LOEC, and NOEC.
The primary stock served as a dosing solution for the highest concentration (100 μg a.i./bee). […] Prior to dosing, young adult bees were removed from the frames, distributed into holding containers, and returned to the holding incubator. Approximately 50 bees were impartially placed in each of eight containers in preparation for use in the various treatment and control groups as needed during the dosing procedure.
The test chambers were stainless steel cylinders measuring approximately 9 cm in diameter and 9 cm high, with perforations for ventilation. Each end of the test chamber was covered with a disposable plastic petri dish (approximately 10 cm in diameter), and the bottom petri dish was lined with filter paper. An inverted glass vial containing approximately 10 mL of 50% (w/v) sucrose solution was inserted through the lid of the chamber. The opening of the vial was covered with gauze, which prevented leakage allowing the bees to feed ad libitum throughout the test period. The test chambers were identified by study number, dosage group, and replicate.
Prior to dosing, the bees in each holding container were immobilized with nitrogen. While anesthetized, bees were individually dosed with the appropriate dosing solution. Bees in the test substance, positive control, and solvent control groups were dosed by administering a 4 μL droplet of the appropriate dosing solution to the dorsal side of the thorax of each bee with an adjustable micropipette. Ten bees were impartially placed in each test chamber. Bees in the positive control treatment group were handled and dosed in the same manner. Solvent control bees were dosed with acetone. Negative control bees were not dosed but were handled identically to the treated bees. After dosing, test chambers were distributed into a testing incubator by indiscriminate draw.
The bees were maintained in continuous darkness during the test except during periods of dosing and observations.
The bees were observed and counted periodically to evaluate mortality and signs of toxicity or abnormal behavior.
The negative control group was used for comparison with the treatment groups.

[3] = test system: House fly (Musca domestica); experiment: Laboratory filter-paper bioassay, house flies exposed to nootkatone; type: in vivo; set-up: key to Dead, Means: % mortality of insects (treated mortality up to 100%); KD, Means / Affected, Means: unit not given here; conditions: 1% v/v nootkatone on filter paper
Source text: (§3) This example describes a laboratory bioassay in which groups of house flies and red flour beetles were exposed to a nootkatone-containing composition to determine their susceptibilities to low concentrations of nootkatone.
as §1, with “A negative control group (consisting of untreated replicates—ethanol only)” for “Pure ethanol”, “also assessed for comparative purposes.” for “used as a control.”
(§4) Treated and untreated filter papers were cut so that they covered the bottom of a suitable container for each test species as follows:
Flies—Five replicates of 10 insects were tested. Inverted 10 ounce (295 mL) clear plastic cups with a 0.5 inch (1.27 cm) hole burned into the center of the bottom, and with the sides coated with Fluon (or similar) were used as the treatment containers. The bottoms of the containers consisted of Petri dish lids 3.54 inches ([…]) in diameter lined with a treated filter paper circle the same diameter. The cup was placed over the filter paper in the lid and both were secured in place using 2 rubber bands. The insects were introduced through the hole in the cup, and a plastic disc was placed over the opening to prevent escapes.
as §2

[4] = test system: Red flour beetle (Tribolium castaneum); experiment: Laboratory filter-paper bioassay, red flour beetles exposed to nootkatone; type: in vivo; set-up: unit not given here; conditions: 1% v/v nootkatone on filter paper
Source text: as §3
as §1, with “A negative control group (consisting of untreated replicates—ethanol only)” for “Pure ethanol”, “also assessed for comparative purposes.” for “used as a control.”
as §4
Flour beetles—Five replicates of 10 insects were tested. A Petri dish lid 3.54 inches (9 cm) in diameter was inverted and served as the substrate for a 2.75 inch (7 cm) treated filter paper circle. The small Petri dish bottom was inverted over the paper and had its sides treated with Fluon (or similar) to prevent climbing and force exposure with the filter paper. The entire Petri dish was enclosed with two rubber bands.
as §2

## C=C(C)[C@@H]1CCC2=CC(=O)C[C@@H](C)[C@]2(C)C1 [Nootkatone, nootkatone]
[1]
  Affected, Means: 100.0%
  Dead, Means: 94.0%
  KD (knockdown), Means: 6.0%
[1]; listed as nootkatone
  Dead, Means: 94%
  KD (knockdown), Means: 6%
[2]; 6.25 μg a.i./bee topical
  48-hour Mortality Mean (%): 10%
  48-hour Mortality (%), replicates A-C: 0% and 10% and 20%
[2]; 12.5 μg a.i./bee topical
  48-hour Mortality Mean (%): 10%
  48-hour Mortality (%), replicates A-C: 0% and 10% and 20%
[2]; 25 μg a.i./bee topical
  48-hour Mortality Mean (%): 0%
  48-hour Mortality (%), replicates A-C: 0%
[2]; 50 μg a.i./bee topical
  48-hour Mortality Mean (%): 3.3%
  48-hour Mortality (%), replicates A-C: 0% (2×) and 10%
[2]; 100 μg a.i./bee topical
  48-hour Mortality Mean (%): 13.3%
  48-hour Mortality (%), replicates A-C: 10% (2×) and 20%
[2]; 48-hour mortality, highest concentration tested
  NOEC (No Observable Effect Concentration): 100 μg a.i./bee
[2]; all doses 6.25 to 100 μg a.i./bee, 48 hours, listed as Nootkatone 98%
  Mortality in the treatment groups at the end of the test: less than 50%
[3]; 30 minutes post introduction
  Affected, Means: 0.0
  Dead, Means: 0.0
  KD, Means: 0.0
[3]; 1 hour post introduction
  Affected, Means: 0.0
  Dead, Means: 0.0
  KD, Means: 0.0
[3]; 4 hours post introduction
  Affected, Means: 0.0
  Dead, Means: 0.0
  KD, Means: 0.0
[3]; 24 hours post introduction
  Affected, Means: 14.0
  Dead, Means: 2.0
  KD, Means: 12.0
[3]; 48 hours post introduction
  Affected, Means: 28.0
  Dead, Means: 28.0
  KD, Means: 0.0
[3]; 72 hours post introduction
  Affected, Means: 44.0
  Dead, Means: 42.0
  KD, Means: 2.0
[4]; 30 minutes post introduction
  Affected, Means: 0.0
  Dead, Means: 0.0
  KD, Means: 0.0
[4]; 1 hour post introduction
  Affected, Means: 0.0
  Dead, Means: 0.0
  KD, Means: 0.0
[4]; 4 hours post introduction
  Affected, Means: 0.0
  Dead, Means: 0.0
  KD, Means: 0.0
[4]; 24 hours post introduction
  Affected, Means: 4.2
  Dead, Means: 0.0
  KD, Means: 4.2
[4]; 48 hours post introduction
  Affected, Means: 6.4
  Dead, Means: 6.4
  KD, Means: 0.0
[4]; 72 hours post introduction
  Affected, Means: 10.9
  Dead, Means: 10.9
  KD, Means: 0.0
